Assay results from ChEMBL document CHEMBL1201862, “PubChem BioAssay data set” (2004).
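Cells were grown in 96-well plates and exposed to each compound for 48 hours at five concentrations; endpoints were interpolated linearly between bracketing concentrations, or set to the highest concentration if not reached. At the GI50, growth is halved.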 Active and inactive are the calls of the source. No stated cut-off is given here; in the data, active = GI50 up to about 1.1 µM and inactive = higher.

Key:
Experiment in all cases: DTP human tumour cell line panel, 48 h
LXFL 529 = test system: LXFL 529
SNB-78 = test system: SNB-78
DMS-273 = test system: DMS-273
XF498 = test system: XF498
KM-20L2 = test system: KM-20L2
HOP-18 = test system: HOP-18
DMS-114 = test system: DMS-114
RXF 631 = test system: RXF 631
M19-MEL = test system: M19-MEL

Measured: GI50

COC(=O)CCCCCOS(=O)(=O)c1ccc(C)cc1
inactive: LXFL 529 > 100 µM | SNB-78 > 100 µM | DMS-273 > 100 µM | XF498 > 100 µM | KM-20L2 > 100 µM | HOP-18 > 100 µM | DMS-114 > 100 µM | RXF 631 > 100 µM | M19-MEL > 100 µM

CCCCCCCCCCCCC(CC)CCCCC(=O)O (configuration not stated)
inactive: LXFL 529 > 100 µM | SNB-78 > 100 µM | DMS-273 > 100 µM | XF498 > 100 µM | KM-20L2 > 100 µM | HOP-18 > 100 µM | DMS-114 > 100 µM | RXF 631 > 100 µM | M19-MEL > 100 µM

COc1ccc(CNc2cc(OC)c(OC)c(OC)c2)cc1
inactive: LXFL 529 7.64 µM | SNB-78 4.62 µM | DMS-273 2.09 µM | XF498 21.3 µM | KM-20L2 2.8 µM | HOP-18 > 21.7 µM | DMS-114 3.01 µM | RXF 631 3.47 µM | M19-MEL 4.57 µM
